From ChEMBL document CHEMBL4334472, “Multi-target-directed-ligands acting as enzyme inhibitors and receptor ligands” (Eur J Med Chem, 2019)

Columns and labels:
Acetylcholinesterase [1] = target: T1, Acetylcholinesterase (Homo sapiens, UniProt P22303); assay: Inhibition of human AChE
Cholinesterase [2] = target: T2, Cholinesterase (Homo sapiens, UniProt P06276); assay: Inhibition of recombinant human BChE using butyrylthiocholine iodide as substrate preincubated for 5 mins followed by substrate addition measured after 5 mins
[3] = target: 5-hydroxytryptamine receptor 6 (Homo sapiens, UniProt P50406); assay: Displacement of [3H]-LSD from recombinant human 5HT6 receptor expressed in CHOK1 cells measured after 60 mins by microbeta scintillation counting method; format: cell-based
[4] = target: Muscarinic acetylcholine receptor M1 (Homo sapiens, UniProt P11229); assay: Inhibition of M1R (unknown origin)
Cholinesterase [5] = target: T2, Cholinesterase; assay: Inhibition of human BChE
[6] = target: Amyloid-beta precursor protein (Homo sapiens) (UniProt P05067); assay: Inhibition of amyloid beta (1 to 42 residues) (unknown origin) self aggregation at 10 uM ThT-based fluorescence assay relative to control
Beta-secretase 1 = Beta-secretase 1 (Homo sapiens, UniProt P56817); assay: Inhibition of BACE1 (unknown origin) using EVNLDAEF as substrate by fluorescence assay
[7] = Inhibition of nAChR (unknown origin) after 1 to 2 mins; set-up: species or system Homo sapiens
[8] = target: Thromboxane A2 receptor (Homo sapiens) (UniProt P21731); assay: Antagonist activity at TP receptor in human washed platelet assessed as U46619 induced platelet aggregation after 6 mins; set-up: scale not given: the % may be the effect or the level left
[9] = target: Prostaglandin G/H synthase 2 (Homo sapiens, UniProt P35354); assay: Inhibition of COX2 in lympho-monocytes (unknown origin) preincubated for 30 mins followed by LPS challenged measured after 24 hrs by EIA; format: cell-based
[10] = target: Prostaglandin G/H synthase 1 (Homo sapiens, UniProt P23219); assay: Inhibition of COX1 in human platelets after 30 mins by mass spectrometry analysis
[11] = target: Neuronal acetylcholine receptor subunit alpha-7 (Homo sapiens, UniProt P36544); assay: Inhibition of alpha7 nAChR (unknown origin)
[12] = target: Neuronal acetylcholine receptor; alpha4/beta2 (Homo sapiens, UniProt P17787+P43681); assay: Inhibition of alpha4beta2 nAChR (unknown origin); format: protein-complex assay
[13] = target: Amine oxidase [flavin-containing] A (Homo sapiens, UniProt P21397); assay: Inhibition of human MAOA
Acetylcholinesterase [14] = target: T1, Acetylcholinesterase; assay: Inhibition of recombinant human AChE using acetylthiocholine iodide as substrate preincubated for 5 mins followed by substrate addition measured after 5 mins
[15] = target: Amine oxidase [flavin-containing] B (Homo sapiens, UniProt P27338); assay: Inhibition of human MAOB
Acetylcholinesterase [16] = target: Acetylcholinesterase (Rattus norvegicus, UniProt P37136); assay: Inhibition of rat AChE
[17] = target: Sodium-dependent serotonin transporter (Homo sapiens, UniProt P31645); assay: Inhibition of 5HTT (unknown origin)
Butyrylcholinesterase = Butyrylcholinesterase (Rattus norvegicus, UniProt Q9JKC1); assay: Inhibition of rat BChE
[18] = target: 5-hydroxytryptamine receptor 1A (Mus musculus, UniProt Q64264); assay: Agonist activity at mouse 5-HT1A expressed in HEK293 cells after 2 to 5 mins; format: cell-based
[19] = target: Prostaglandin G/H synthase 2 (Ovis aries, UniProt P79208); assay: Inhibition of ovine COX2
[20] = target: Transient receptor potential cation channel subfamily V member 1 (Homo sapiens, UniProt Q8NER1); assay: Inhibition of TRPV1 (unknown origin)
[21] = target: Prostaglandin G/H synthase 1 (Ovis aries, UniProt P05979); assay: Inhibition of ovine COX1
Histamine H3 receptor = Histamine H3 receptor (Homo sapiens, UniProt Q9Y5N1); assay: Inhibition of human histamine H3 receptor
Cholinesterase [22] = target: Cholinesterase (Equus caballus, UniProt P81908); assay: Inhibition of equine BChE

T1 sequence (P22303 whole entry): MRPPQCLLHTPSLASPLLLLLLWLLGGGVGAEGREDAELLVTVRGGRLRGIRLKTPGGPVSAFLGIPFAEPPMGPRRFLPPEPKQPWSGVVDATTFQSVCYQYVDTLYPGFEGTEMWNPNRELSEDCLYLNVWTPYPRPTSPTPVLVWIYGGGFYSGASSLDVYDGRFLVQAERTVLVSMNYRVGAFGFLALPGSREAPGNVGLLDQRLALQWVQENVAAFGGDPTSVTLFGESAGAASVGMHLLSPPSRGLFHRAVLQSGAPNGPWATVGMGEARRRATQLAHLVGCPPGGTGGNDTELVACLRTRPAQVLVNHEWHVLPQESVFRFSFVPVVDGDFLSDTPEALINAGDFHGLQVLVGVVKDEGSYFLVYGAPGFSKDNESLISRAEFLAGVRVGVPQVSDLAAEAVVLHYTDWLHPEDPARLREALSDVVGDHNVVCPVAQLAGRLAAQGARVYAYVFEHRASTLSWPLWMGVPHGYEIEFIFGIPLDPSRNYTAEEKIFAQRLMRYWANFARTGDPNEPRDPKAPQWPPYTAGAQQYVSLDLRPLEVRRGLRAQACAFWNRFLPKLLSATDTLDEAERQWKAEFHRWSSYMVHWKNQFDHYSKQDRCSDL
T2 sequence (P06276 whole entry): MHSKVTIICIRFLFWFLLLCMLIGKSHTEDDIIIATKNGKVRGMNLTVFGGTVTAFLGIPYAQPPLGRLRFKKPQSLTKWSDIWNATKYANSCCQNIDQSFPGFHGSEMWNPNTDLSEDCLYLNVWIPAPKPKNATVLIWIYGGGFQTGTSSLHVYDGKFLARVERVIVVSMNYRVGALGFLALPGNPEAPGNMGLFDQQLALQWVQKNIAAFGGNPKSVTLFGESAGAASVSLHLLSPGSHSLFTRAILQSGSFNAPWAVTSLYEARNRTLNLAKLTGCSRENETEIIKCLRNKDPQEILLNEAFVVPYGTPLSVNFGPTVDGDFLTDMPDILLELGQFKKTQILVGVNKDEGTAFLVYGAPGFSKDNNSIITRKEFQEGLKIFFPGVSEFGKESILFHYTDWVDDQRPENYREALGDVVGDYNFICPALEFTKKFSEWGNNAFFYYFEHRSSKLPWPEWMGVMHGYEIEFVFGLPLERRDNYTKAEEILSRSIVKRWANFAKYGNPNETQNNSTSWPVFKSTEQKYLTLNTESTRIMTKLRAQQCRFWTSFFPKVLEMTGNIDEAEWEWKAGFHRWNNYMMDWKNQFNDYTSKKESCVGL
Thromboxane A2 receptor (Homo sapiens), sequence (P21731 whole entry): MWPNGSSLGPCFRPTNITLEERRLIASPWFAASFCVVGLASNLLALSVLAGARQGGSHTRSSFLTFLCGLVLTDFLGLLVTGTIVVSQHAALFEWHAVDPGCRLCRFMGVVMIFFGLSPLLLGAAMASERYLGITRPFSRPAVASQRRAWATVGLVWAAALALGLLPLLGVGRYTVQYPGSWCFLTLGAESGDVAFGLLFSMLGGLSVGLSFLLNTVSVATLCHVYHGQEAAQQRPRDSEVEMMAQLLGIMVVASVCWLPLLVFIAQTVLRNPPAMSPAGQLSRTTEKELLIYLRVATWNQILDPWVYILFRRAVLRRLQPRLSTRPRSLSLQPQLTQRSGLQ
5-hydroxytryptamine receptor 6, sequence (P50406 whole entry): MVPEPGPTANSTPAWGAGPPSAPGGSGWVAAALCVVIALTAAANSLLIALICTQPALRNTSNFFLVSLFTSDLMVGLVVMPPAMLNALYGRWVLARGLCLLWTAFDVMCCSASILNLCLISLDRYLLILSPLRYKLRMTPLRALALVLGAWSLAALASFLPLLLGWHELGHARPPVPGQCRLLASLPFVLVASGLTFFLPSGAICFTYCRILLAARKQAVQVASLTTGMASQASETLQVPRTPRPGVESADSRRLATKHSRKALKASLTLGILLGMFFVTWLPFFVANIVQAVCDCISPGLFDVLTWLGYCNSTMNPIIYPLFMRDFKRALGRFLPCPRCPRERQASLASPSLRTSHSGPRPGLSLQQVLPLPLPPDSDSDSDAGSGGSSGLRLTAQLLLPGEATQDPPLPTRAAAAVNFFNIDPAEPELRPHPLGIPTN
Prostaglandin G/H synthase 1 (Homo sapiens, UniProt P23219), sequence (P23219 whole entry): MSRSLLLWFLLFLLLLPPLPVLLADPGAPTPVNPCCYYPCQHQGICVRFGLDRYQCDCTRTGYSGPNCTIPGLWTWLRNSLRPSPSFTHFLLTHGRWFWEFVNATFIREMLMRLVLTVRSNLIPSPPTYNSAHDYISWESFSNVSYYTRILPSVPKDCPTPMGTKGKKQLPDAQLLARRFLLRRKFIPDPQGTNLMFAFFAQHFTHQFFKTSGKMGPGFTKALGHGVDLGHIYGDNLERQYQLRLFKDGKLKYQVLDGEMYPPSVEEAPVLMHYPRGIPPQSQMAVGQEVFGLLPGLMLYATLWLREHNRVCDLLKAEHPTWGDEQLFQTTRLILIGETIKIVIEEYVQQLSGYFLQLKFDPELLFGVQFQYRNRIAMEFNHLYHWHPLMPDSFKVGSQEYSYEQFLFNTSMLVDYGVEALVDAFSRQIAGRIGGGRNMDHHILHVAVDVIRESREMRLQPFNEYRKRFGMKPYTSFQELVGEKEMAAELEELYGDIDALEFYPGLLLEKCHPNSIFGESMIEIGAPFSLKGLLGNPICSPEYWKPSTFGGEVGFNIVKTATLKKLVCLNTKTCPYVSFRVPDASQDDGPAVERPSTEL
Prostaglandin G/H synthase 2 (Homo sapiens, UniProt P35354), sequence (P35354 whole entry): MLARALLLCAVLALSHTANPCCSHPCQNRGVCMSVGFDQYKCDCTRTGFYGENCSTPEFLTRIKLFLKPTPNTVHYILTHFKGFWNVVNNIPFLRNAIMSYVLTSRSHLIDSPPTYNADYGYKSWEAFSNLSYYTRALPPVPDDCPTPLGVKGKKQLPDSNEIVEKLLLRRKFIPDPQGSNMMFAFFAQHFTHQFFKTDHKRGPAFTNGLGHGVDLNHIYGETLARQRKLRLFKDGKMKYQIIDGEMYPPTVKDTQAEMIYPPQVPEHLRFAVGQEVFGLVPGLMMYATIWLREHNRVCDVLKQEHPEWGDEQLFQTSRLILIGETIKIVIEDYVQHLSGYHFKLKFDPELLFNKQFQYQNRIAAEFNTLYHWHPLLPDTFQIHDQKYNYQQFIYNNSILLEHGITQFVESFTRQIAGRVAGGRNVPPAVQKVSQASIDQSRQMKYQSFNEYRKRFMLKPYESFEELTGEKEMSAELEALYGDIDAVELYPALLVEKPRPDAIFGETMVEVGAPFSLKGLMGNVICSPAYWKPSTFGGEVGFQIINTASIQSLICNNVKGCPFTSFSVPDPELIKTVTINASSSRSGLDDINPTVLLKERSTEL
Amyloid-beta precursor protein (Homo sapiens), sequence (P05067 whole entry, the tested form may be a part): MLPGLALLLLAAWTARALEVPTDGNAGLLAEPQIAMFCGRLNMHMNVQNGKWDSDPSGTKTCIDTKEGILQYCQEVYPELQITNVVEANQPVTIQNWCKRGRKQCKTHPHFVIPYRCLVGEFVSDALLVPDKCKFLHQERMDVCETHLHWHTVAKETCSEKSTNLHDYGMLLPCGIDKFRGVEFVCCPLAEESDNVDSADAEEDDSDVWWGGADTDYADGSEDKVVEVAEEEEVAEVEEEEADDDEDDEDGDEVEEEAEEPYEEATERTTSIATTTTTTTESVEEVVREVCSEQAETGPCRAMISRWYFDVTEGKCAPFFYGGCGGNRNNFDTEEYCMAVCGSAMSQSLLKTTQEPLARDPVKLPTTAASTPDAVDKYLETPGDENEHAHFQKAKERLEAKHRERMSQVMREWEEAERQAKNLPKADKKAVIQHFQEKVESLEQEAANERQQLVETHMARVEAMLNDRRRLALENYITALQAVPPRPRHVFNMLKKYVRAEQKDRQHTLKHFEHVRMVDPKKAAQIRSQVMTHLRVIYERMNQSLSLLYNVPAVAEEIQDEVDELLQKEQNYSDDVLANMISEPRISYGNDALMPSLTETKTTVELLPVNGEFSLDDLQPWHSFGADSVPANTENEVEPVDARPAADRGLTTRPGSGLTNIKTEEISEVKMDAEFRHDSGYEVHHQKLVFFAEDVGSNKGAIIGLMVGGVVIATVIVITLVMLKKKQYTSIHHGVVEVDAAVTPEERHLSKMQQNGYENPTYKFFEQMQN
Prostaglandin G/H synthase 1 (Ovis aries, UniProt P05979), sequence (P05979 whole entry): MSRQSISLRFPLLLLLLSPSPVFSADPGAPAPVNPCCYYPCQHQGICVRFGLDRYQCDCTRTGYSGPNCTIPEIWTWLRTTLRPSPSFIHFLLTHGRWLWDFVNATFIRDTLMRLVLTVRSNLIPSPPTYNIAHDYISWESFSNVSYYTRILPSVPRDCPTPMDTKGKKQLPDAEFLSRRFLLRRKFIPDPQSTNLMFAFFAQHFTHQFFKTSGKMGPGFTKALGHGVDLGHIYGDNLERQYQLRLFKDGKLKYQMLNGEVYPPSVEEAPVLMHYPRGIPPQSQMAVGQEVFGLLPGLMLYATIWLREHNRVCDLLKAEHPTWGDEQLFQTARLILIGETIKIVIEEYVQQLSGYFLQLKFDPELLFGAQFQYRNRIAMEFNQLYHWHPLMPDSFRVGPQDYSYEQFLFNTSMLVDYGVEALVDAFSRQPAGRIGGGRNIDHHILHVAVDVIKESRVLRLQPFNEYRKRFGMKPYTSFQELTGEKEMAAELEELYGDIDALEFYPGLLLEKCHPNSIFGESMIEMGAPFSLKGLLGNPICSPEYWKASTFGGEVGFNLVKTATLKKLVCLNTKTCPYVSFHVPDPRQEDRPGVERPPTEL
Histamine H3 receptor, sequence (Q9Y5N1 whole entry): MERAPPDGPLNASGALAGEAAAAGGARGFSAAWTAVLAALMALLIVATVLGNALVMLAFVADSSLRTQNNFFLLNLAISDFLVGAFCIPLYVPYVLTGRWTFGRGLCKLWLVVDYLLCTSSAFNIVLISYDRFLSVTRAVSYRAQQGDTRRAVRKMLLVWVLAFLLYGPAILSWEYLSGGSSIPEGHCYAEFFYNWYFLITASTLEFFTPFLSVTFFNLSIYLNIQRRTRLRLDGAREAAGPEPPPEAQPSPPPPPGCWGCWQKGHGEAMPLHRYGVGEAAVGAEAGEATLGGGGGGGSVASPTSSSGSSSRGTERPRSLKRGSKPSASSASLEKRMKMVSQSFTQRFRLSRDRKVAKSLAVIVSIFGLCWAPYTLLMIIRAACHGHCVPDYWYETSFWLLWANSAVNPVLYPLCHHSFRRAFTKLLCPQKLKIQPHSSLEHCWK

For `COc1cc2c(cc1OC)-c1cc(OCCN3CCCCC3)nc(=O)n1CC2`, the IC50 (Acetylcholinesterase [1]) was 5000 nM.
Molecule `CN(CCCN1CCN(c2cccc3c2ccn3Cc2ccccc2)CC1)Cc1ccccc1` has an IC50 (Cholinesterase [2]) of 196 nM and a Ki [3] of 240 nM.
For `COc1ccc2nc3c(c(NCCCCCCCCNC(=S)NC45CC6CC(CC(C6)C4)C5)c2c1)CCCC3`, the IC50 [4] was 2200 nM, the IC50 (Cholinesterase [5]) was 300 nM and the inhibition [6] was 77%. For the same molecule, the IC50 (Beta-secretase 1) was 18400 nM, the IC50 [7] was 1100 nM and the IC50 (Acetylcholinesterase [1]) was 1600 nM.
`Cc1ccc(Nc2c(F)cccc2Cl)c(CNS(=O)(=O)C(F)(F)F)c1` gave an Activity [8] of 5.9%, an IC50 [9] of 400 nM and an IC50 [10] of 16100 nM.
In the case of `COc1ccccc1CN1CCN(CCCCCOc2cccc3[nH]c4ccccc4c23)CC1`, the Ki [11] is reported as 66800 nM, the IC50 (Cholinesterase [5]) is reported as 600 nM and the Ki [12] is reported as 35300 nM. For the same molecule, the inhibition [6] was 34% and the IC50 (Acetylcholinesterase [1]) was 2400 nM.
With `C#CCN(C)Cc1cc2cc(OCCCC3CCN(Cc4ccccc4)CC3)ccc2n1C` the IC50 [13] was 0.3 nM.
`Cc1ccc(Nc2c(F)cccc2Cl)c(CNc2nnn[nH]2)c1` gave an Activity [8] of 5.6%, an IC50 [9] of 14 nM and an IC50 [10] of 13200 nM.
`Cc1c(OCc2ccccc2)cccc1N1CCN(CCCCCCNc2c3c(nc4c2CCCC4)CCCC3)CC1` showed an IC50 (Acetylcholinesterase [14]) of 14 nM, an IC50 (Cholinesterase [2]) of 22 nM and a Ki [3] of 18 nM.
In the case of `O=C(c1ccc(OCCCc2cnc[nH]2)cc1)C1CC1` [CIPROXIFAN], the IC50 [15] is reported as 1900 nM.
`N#Cc1ccc2[nH]cc(CCCCN3CCN(c4c5c(nc6ccccc46)CCCC5)CC3)c2c1` gave an IC50 (Acetylcholinesterase [16]) of 76 nM, an IC50 [17] of 15.8 nM and an IC50 (Butyrylcholinesterase) of 3300 nM. The EC50 [18] was 107 nM.
Work on `CC[C@@H](/C=C/[C@@H](C)[C@H]1CC[C@H]2C3=CC[C@H]4C[C@@H](O)CC[C@]4(C)[C@H]3CC[C@]12C)C(C)C` yielded an IC50 [19] of 7800 nM, an IC50 [20] of 1400 nM and an IC50 [21] of 16200 nM.
`O=c1c2cc(OCCCN3CCCCC3)ccc2nc2n1CCC2` showed a Ki (Histamine H3 receptor) of 2500 nM, an IC50 (Cholinesterase [22]) of 248000 nM and an IC50 (Acetylcholinesterase [1]) of 5400 nM.
